# Patent US20220096515A1, “Methods and Formulations for Preventing Neurological or Psychiatric Disorders” (Huntington Medical Research Institutes, priority 2020, published 2022)
# Columns and labels:
# Format in all cases: in vivo, mouse
# Gabrb3^ECKO mice [1] = experiment: Open field locomotor activity; conditions: 60 minutes; between the three groups
# Protocol: (§1) Behavioral Experiments: Mice were housed in our animal facility with a 12-hour light cycle with ad libitum access to food and water. Offspring stayed with their mothers until weaning at PND 21 after which males and females were separated. Before all behavioral testing, mice were acclimated to the testing room for 1 hour. Behavioral assays were performed according to established protocols referenced here: self-grooming, light-dark box, tail suspension test, Y-maze, open field locomotion activity, three chamber social interaction test and nest building with nestlets and with shredded paper. Both males and females were used for all behavioral assays. Experimenters scoring behaviors were blinded to the genotypes and treatment. Sample sizes for each assay are noted in figure legends.
# (§2) Anxiety was next assessed with the classic light-dark transition test which triggers a struggle between the desires to explore a novel environment versus natural aversion of a brightly illuminated open space. […] The Y maze spontaneous alternation test was used to evaluate for spatial learning and memory in the three groups of mice. After introduction to the center of the maze, the mice were given free access to all three arms. […] The total number of arm entries and the sequence of entries are recorded in order to calculate the percentage of alternation. […]
# Gabrb3^ECKO mice [2] = experiment: Tail suspension test; conditions: vs saline-treated Gabrb3^ECKO mice
# Protocol: as §1, §2
# Gabrb3^ECKO mice [3] = experiment: Nest building (nestlets and shredded paper)
# Protocol: as §1
# Therefore, behavioral tests were performed to screen for stress, anxiety, locomotion, cognition, and sociability in saline-treated Gabrb3^fl/fl mice, saline-treated Gabrb3^ECKO mice and NAD^+-treated Gabrb3^ECKO mice. Mice from saline and NAD^+-treated groups were housed individually in cages containing wood chip bedding and two nestlets (pressed cotton) (FIGS. 16A-16D) or more naturalistic material like shredded paper strips (FIGS. 16E-16H). […] This rescue of home cage social behavior was a robust indication of well-being in NAD^+-treated Gabrb3^ECKO mice. […]
# P2X4 = P2X4 mRNA and protein expression in endothelial cells after prenatal treatment; conditions: after six-day treatment paradigm
# Protocol: Primary culture of endothelial cells and endothelial cell staining: Embryonic brains were dissected under a stereo-microscope, after the NAD^+ treatment paradigm and the telencephalon was removed. Pial membranes were peeled off. Telencephalon without pial membranes from the periventricular region was pooled. Purity of endothelial cell cultures was established with endothelial cell markers and determined to be one hundred percent. Isolation and culture of endothelial cells were performed according to published methodology. Periventricular endothelial cells were prepared from CD1 (wild type), saline-treated Gabrb3^fl/fl, saline-treated Gabrb3^ECKO, and NAD^+-treated Gabrb3^ECKO embryos. […]
# Quantitative real-time PCR: RT was performed by using iScript Reverse Transcription Supermix kit (Bio-Rad). […] The relative gene expression and subsequent fold changes among different samples were determined according to published methodology.
# An important aspect that influences endothelial cell proliferation is Ca^2+ influx, which is important for cell cycle progression in the neocortex. […] Therefore, P2X4 expression at both mRNA and protein levels in periventricular endothelial cells were evaluated, prepared after the six-day saline and NAD^+ treatment paradigm (FIGS. 11J-11O). […]
smiles,measurement,setting,value
NC(=O)c1ccc[n+]([C@@H]2O[C@H](COP(=O)([O-])OP(=O)(O)OC[C@H]3O[C@@H](n4cnc5c(N)ncnc54)[C@H](O)[C@@H]3O)[C@@H](O)[C@H]2O)c1 [NAD^+],open field locomotor activity,Gabrb3^ECKO mice [1],no significant differences
same,immobility times,Gabrb3^ECKO mice [2],significantly lower immobility times
same,nest building ability,Gabrb3^ECKO mice [3],significant improvement in their nest building ability
same,P2X4 mRNA and protein expression,P2X4,its expression was rescued
